Measured values as given in patent US8278452B2, “Heterocyclic compounds and compositions as c-kit and PDGFR kinase inhibitors” (IRM LLC, priority 2008, dated 2012).

Key:
[1] = system: Mo7e cells which endogenously express c-kit; assay: Mo7e assay: inhibition of SCF dependent proliferation (MTT); type: cell-based
Procedure, shortened: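 Mo7e cells stimulated with human recombinant SCF and exposed to two-fold serial compound dilutions from a top concentration of 10 μM. After 48 h at 37 °C, viability measured by MTT colorimetric assay; IC50 derived.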

Human TG/HA-VSMC cells = assay: Human TG/HA-VSMC proliferation assay (PDGF-BB, CellTiter-Glo); type: cell-based; details: Biological data table, PDGF-BB stimulated
Procedure: Human TG/HA-VSMC Proliferation Assay
Human TG/HA-VSMC cells (ATCC) were resuspended in DMEM supplemented with 1% FBS and 30 ng/mL recombinant human PDGF-BB at 60,000 cells/mL. The cells were aliquoted into 384 well plates at 50 μL/well and incubated for 4 hours at 37° C. in a humidified incubator in the presence of 5% carbon dioxide. 0.5 μL of test compound diluted in DMSO was added to each well. The plates were returned to the incubator for a further 68 hours. 25 μL of CellTiter-Glo (Promega) was added to each well and the plates were incubated on the bench for 15 minutes. Luminescence was then read using a CLIPR CCD camera (Molecular Devices).

[2] = Mo7e, Biological data table (selectivity c-kit over PDGFR)
[3] = Table 1, SCF stimulated Mo7e cells, 48 hours, MTT

| Compound | IC50 [1, 2] [nM] | IC50 [1, 3] [nM] | IC50 (Human TG/HA-VSMC cells) [nM] |
| --- | --- | --- | --- |
| Cc1cc2c(cn1)cc(-c1cc(Nc3nnc(-c4ccccc4)[nH]3)ccc1C)c(=O)n2C [Compound C6, 1,7-dimethyl-3-(2-methyl-5-(5-phenyl-4H-1,2,4-triazol-3-ylamino)phenyl)-1,6-naphthyridin-2(1H)-one] | 335 | 335 | 3390 |
| Cc1cc2c(cn1)cc(-c1cc(Nc3nc(-c4ccccn4)no3)ccc1C)c(=O)n2C [Compound E2, 1,7-dimethyl-3-(2-methyl-5-(3-(pyridin-2-yl)-1,2,4-oxadiazol-5-ylamino)phenyl)-1,6-naphthyridin-2(1H)-one] | 256 | 256 | 2360 |
| COc1ccc(-c2nc(Nc3ccc(C)c(-c4cc5cnc(C)cc5n(C)c4=O)c3)no2)cc1 [Compound A14, 3-(5-{[5-(4-methoxyphenyl)-1,2,4-oxadiazol-3-yl]amino}-2-methylphenyl)-1,7-dimethyl-1,2-dihydro-1,6-naphthyridin-2-one] | 14 | 14 | 1820 |
| Cc1cc2c(cn1)cc(-c1cc(Nc3cc(-c4nccs4)on3)ccc1C)c(=O)n2C [Compound D9, 1,7-dimethyl-3-(2-methyl-5-(5-(thiazol-2-yl)isoxazol-3-ylamino)phenyl)-1,6-naphthyridin-2(1H)-one] | 141 | 141 | 1070 |
| Cc1ccc(-c2nnc(Nc3ccc(C)c(-c4cc5cnc(C)cc5n(C)c4=O)c3)o2)cc1 [Compound B1, 1,7-dimethyl-3-(2-methyl-5-{[5-(4-methylphenyl)-1,3,4-oxadiazol-2-yl]amino}phenyl)-1,2-dihydro-1,6-naphthyridin-2-one] | 76 | 76 | 2260 |
| Cc1cc2c(cn1)cc(-c1cc(Nc3noc(C4CC4)n3)ccc1C)c(=O)n2C [Compound A3, 3-(5-(5-cyclopropyl-1,2,4-oxadiazol-3-ylamino)-2-methylphenyl)-1,7-dimethyl-1,6-naphthyridin-2(1H)-one] | 16 | 16 | 506 |
| Cc1cc2c(cn1)cc(-c1cc(Nc3noc(CC(C)C)n3)ccc1C)c(=O)n2C [Compound A68, 3-(5-(5-isobutyl-1,2,4-oxadiazol-3-ylamino)-2-methylphenyl)-1,7-dimethyl-1,6-naphthyridin-2(1H)-one] |  | 128 |  |
| Cc1cc2c(cn1)cc(-c1cc(Nc3noc(C4CCCN4C)n3)ccc1C)c(=O)n2C (centres unmarked) [Compound A23, 1,7-dimethyl-3-(2-methyl-5-{[5-(1-methylpyrrolidin-2-yl)-1,2,4-oxadiazol-3-yl]amino}phenyl)-1,2-dihydro-1,6-naphthyridin-2-one] |  | 208 |  |
| Cc1cc2c(cn1)cc(-c1cc(Nc3nnc(C4CCCCC4)[nH]3)ccc1C)c(=O)n2C [Compound C3, 3-{5-[(5-cyclohexyl-4H-1,2,4-triazol-3-yl)amino]-2-methylphenyl}-1,7-dimethyl-1,2-dihydro-1,6-naphthyridin-2-one] |  | 279 |  |
| Cc1cc2c(cn1)cc(-c1cc(Nc3cc(-c4nccs4)no3)ccc1C)c(=O)n2C [Compound F1, 1,7-dimethyl-3-(2-methyl-5-(3-(thiazol-2-yl)isoxazol-5-ylamino)phenyl)-1,6-naphthyridin-2(1H)-one] | 111 | 111 | 2140 |
| Cc1cc2c(cn1)cc(-c1cc(Nc3noc(C4CCCCC4)n3)ccc1C)c(=O)n2C [Compound A18, 3-{5-[(5-cyclohexyl-1,2,4-oxadiazol-3-yl)amino]-2-methylphenyl}-1,7-dimethyl-1,2-dihydro-1,6-naphthyridin-2-one] |  | 179 |  |
| CC(=NO)c1cc(Nc2ccc(C)c(-c3cc4cnc(C)cc4n(C)c3=O)c2)no1 [Compound D13] |  | 476 |  |
| Cc1cc2c(cn1)cc(-c1cc(Nc3cc(-c4ccc(Cl)cc4Cl)on3)ccc1C)c(=O)n2C [Compound D7] |  | 401 |  |
| Cc1cc2c(cn1)cc(-c1cc(Nc3cc(-c4ccccn4)on3)ccc1C)c(=O)n2C [Compound D3] |  | 158 |  |
| Cc1cc2c(cn1)cc(-c1cc(Nc3cc(-c4ccc(F)cc4)on3)ccc1C)c(=O)n2C [Compound D11] |  | 82 |  |
| Cc1cc2c(cn1)cc(-c1cc(Nc3nnc(C(C)(C)C)o3)ccc1C)c(=O)n2C [Compound B8, 3-{5-[(5-tert-butyl-1,3,4-oxadiazol-2-yl)amino]-2-methylphenyl}-1,7-dimethyl-1,2-dihydro-1,6-naphthyridin-2-one] |  | 211 |  |
| Cc1cc2c(cn1)cc(-c1cc(Nc3noc(-c4cccc(C#N)c4)n3)ccc1C)c(=O)n2C [Compound A40, 3-(3-{[3-(1,7-dimethyl-2-oxo-1,2-dihydro-1,6-naphthyridin-3-yl)-4-methylphenyl]amino}-1,2,4-oxadiazol-5-yl)benzonitrile] |  | 299 |  |
| Cc1cc2c(cn1)cc(-c1cc(Nc3noc([C@H]4CCCCO4)n3)ccc1C)c(=O)n2C [Compound A99, 1,7-dimethyl-3-[2-methyl-5-({5-[(2R)-oxan-2-yl]-1,2,4-oxadiazol-3-yl}amino)phenyl]-1,2-dihydro-1,6-naphthyridin-2-one] |  | 100 |  |
| Cc1cc2c(cn1)cc(-c1cc(Nc3noc(-c4cccc(C)n4)n3)ccc1C)c(=O)n2C [Compound A47, 1,7-dimethyl-3-(2-methyl-5-{[5-(6-methylpyridin-2-yl)-1,2,4-oxadiazol-3-yl]amino}phenyl)-1,2-dihydro-1,6-naphthyridin-2-one] |  | 311 |  |
| Cc1cc2c(cn1)cc(-c1cc(Nc3noc(CC(C)(C)O)n3)ccc1C)c(=O)n2C [Compound A56, 3-(5-(5-(2-hydroxy-2-methylpropyl)-1,2,4-oxadiazol-3-ylamino)-2-methylphenyl)-1,7-dimethyl-1,6-naphthyridin-2(1H)-one] |  | 230 |  |
| Cc1cc2c(cn1)cc(-c1cc(Nc3noc(-c4ccccc4)c3C)ccc1C)c(=O)n2C [Compound D10] |  | 339 |  |
| Cc1cc2c(cn1)cc(-c1cc(Nc3noc(-c4ccccc4C#N)n3)ccc1C)c(=O)n2C [Compound A38, 2-(3-{[3-(1,7-dimethyl-2-oxo-1,2-dihydro-1,6-naphthyridin-3-yl)-4-methylphenyl]amino}-1,2,4-oxadiazol-5-yl)benzonitrile] |  | 325 |  |
| CCCc1nc(Nc2ccc(C)c(-c3cc4cnc(C)cc4n(C)c3=O)c2)no1 [Compound A28, 1,7-dimethyl-3-{2-methyl-5-[(5-propyl-1,2,4-oxadiazol-3-yl)amino]phenyl}-1,2-dihydro-1,6-naphthyridin-2-one] |  | 50 |  |
| Cc1cc2c(cn1)cc(-c1cc(Nc3noc(C4CCCCO4)n3)ccc1C)c(=O)n2C (centres unmarked) [Compound A85, 1,7-dimethyl-3-(2-methyl-5-{[5-(oxan-2-yl)-1,2,4-oxadiazol-3-yl]amino}phenyl)-1,2-dihydro-1,6-naphthyridin-2-one] |  | 79 |  |
| Cc1cc2c(cn1)cc(-c1cc(Nc3noc(-c4ccc(C)nc4Cl)n3)ccc1C)c(=O)n2C [Compound A48, 3-(5-{[5-(2-chloro-6-methylpyridin-3-yl)-1,2,4-oxadiazol-3-yl]amino}-2-methylphenyl)-1,7-dimethyl-1,2-dihydro-1,6-naphthyridin-2-one] |  | 361 |  |
| Cc1cc2c(cn1)cc(-c1cc(Nc3noc(-c4cccc(Cl)c4)n3)ccc1C)c(=O)n2C [Compound A20, 3-(5-{[5-(3-chlorophenyl)-1,2,4-oxadiazol-3-yl]amino}-2-methylphenyl)-1,7-dimethyl-1,2-dihydro-1,6-naphthyridin-2-one] |  | 330 |  |
| Cc1cc2c(cn1)cc(-c1cc(Nc3cc(-c4ccc(F)cc4Cl)on3)ccc1C)c(=O)n2C [Compound D8] |  | 361 |  |
| Cc1cc2c(cn1)cc(-c1cc(Nc3cc(-c4ccccc4)on3)ccc1C)c(=O)n2C [Compound D1, 1,7-dimethyl-3-(2-methyl-5-(5-phenylisoxazol-3-ylamino)phenyl)-1,6-naphthyridin-2(1H)-one] |  | 68 |  |
| CCC(C)c1nc(Nc2ccc(C)c(-c3cc4cnc(C)cc4n(C)c3=O)c2)no1 (stereo in doubt) [Compound A27, 3-[5-({5-[(2S)-butan-2-yl]-1,2,4-oxadiazol-3-yl}amino)-2-methylphenyl]-1,7-dimethyl-1,2-dihydro-1,6-naphthyridin-2-one] |  | 54 |  |
| Cc1cc2c(cn1)cc(-c1cc(Nc3noc(-c4csc(-c5cccnc5)n4)n3)ccc1C)c(=O)n2C [Compound A44, 1,7-dimethyl-3-[2-methyl-5-({5-[2-(pyridin-3-yl)-1,3-thiazol-4-yl]-1,2,4-oxadiazol-3-yl}amino)phenyl]-1,2-dihydro-1,6-naphthyridin-2-one] |  | 456 |  |
